According to patent US10988477B2 (Merck Patent GmbH, priority 2018, dated 2021):

What was measured:
GCN2 kinase = GCN2 kinase (Homo sapiens, UniProt Q9P2K8); assay: GCN2 enzyme inhibition assay (Transcreener ADP2 fluorescence polarization); assay type: biochemical; conditions: 280 μM ATP, 4 nM GCN2 kinase
Method in brief: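 Human GCN2 (4 nM) preincubated 10 min with compound (0–8 μM) and 200 μM (RS)7 peptide in Tris-HCl pH 7.5, NaCl, MgCl2, DTT. Reaction started with 280 μM ATP, run 1 h at 25 °C. ADP detected by Transcreener fluorescence polarization. IC50 and Ki(app) fitted by tight-binding algorithm.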

[1] = system: primary human pan T-cells; assay: Human IL-2 assay for GCN2 inhibition (IL-2 secretion by T cells in low amino acid condition); assay type: cell-based; conditions: T-cell; IL-2 secretion from human T cells, anti-CD3/CD28 stimulation, 96 hours; read-out: IL2/T-cell EC50
Source text: Tumor microenvironment is profoundly immuno-suppressive. This may be attributed to the depletion of amino acids (like arginine and tryptophan) which triggers the activation of GCN2 in immune cells, including T cell and myeloid cells. In T cells, activation of GCN2 leads to reduce effector functions of CD8 T cells and induction and/or maintenance of immuno-suppressive T-regs. Inhibition of that immuno-suppressive response by GCN2 inhibitors enables an anti-cancer immune response by activating effector T-cells. Herein we describe an in-vitro system we established using human T-cells stimulated in low amino acid condition in order to engage the GCN2 biology. The method described involves the modulation of IL-2 levels secreted by human T cells in responses to the GCN2 inhibitors disclosed herein.
Amino acid-free RPMI was reconstituted with all but one of the amino acids found in standard RMPI (e.g. Arginine, Tryptophan), 10% charcoal-stripped fetal bovine serum, 100 Units/mL penicillin and 0.1 mg/mL streptomycin. Primary human pan T-cells were isolated using Pan T Cell Isolation Kit, human (MACS Miltenyi biotech Cat #Order no. 130-096-535) from apheresis cones and 5×104 pan T-cells per well. The purified T cells are seeded in Nunc™ 96-Well Polystyrene Round Bottom Microwell Plates (the cells are rested in No TRP media in a 15 ml falcon tube in the incubator for 30-45 minutes while titrations for tryptophan and the GCN2 inhibitor compound are made) A plate matrix was developed to titrate both a GCN2 inhibitor and the amino acid of interest ranging from “No Amino Acid” condition, up to the concentration found in the regular RPMI media (20 μM for TRP and 950 μM for Arginine). The cells were incubated for 30 min at 37° C. with the GCN2 inhibitor and then stimulated with 5×104 anti-CD3/CD28 Dynabeads® per well. After 96 hours of incubation the IL-2 level in the supernatant were measured using ELISA (R&D systems Cat #DY202 (Human IL-2 DuoSet ELISA). Data were plotted in GraphPad Prism software and EC50 is calculated.

[2] = target: intracellular GCN2 (phosphorylation of the GCN2 substrate eIF2α) (Homo sapiens, UniProt Q9P2K8); assay: GCN2 cellular inhibition assay (AlphaScreen SureFire P-eIF2α Ser51, borrelidin-treated U2OS cells); assay type: cell-based; conditions: biomarker assay, phosphorylated eIF2α Ser51 in borrelidin-treated U2OS cells
Method in brief: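 First, U2OS cells are plated and left overnight at 37 °C. Next, compounds (from 40 μM final, 4-fold steps) and 10 μM borrelidin are added for 1 h, cells lysed, and phospho-Ser51 eIF2α detected by AlphaScreen bead sandwich. Inhibition is computed versus borrelidin-only wells.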

Chain of intracellular GCN2 (phosphorylation of the GCN2 substrate eIF2α) (Q9P2K8 whole entry): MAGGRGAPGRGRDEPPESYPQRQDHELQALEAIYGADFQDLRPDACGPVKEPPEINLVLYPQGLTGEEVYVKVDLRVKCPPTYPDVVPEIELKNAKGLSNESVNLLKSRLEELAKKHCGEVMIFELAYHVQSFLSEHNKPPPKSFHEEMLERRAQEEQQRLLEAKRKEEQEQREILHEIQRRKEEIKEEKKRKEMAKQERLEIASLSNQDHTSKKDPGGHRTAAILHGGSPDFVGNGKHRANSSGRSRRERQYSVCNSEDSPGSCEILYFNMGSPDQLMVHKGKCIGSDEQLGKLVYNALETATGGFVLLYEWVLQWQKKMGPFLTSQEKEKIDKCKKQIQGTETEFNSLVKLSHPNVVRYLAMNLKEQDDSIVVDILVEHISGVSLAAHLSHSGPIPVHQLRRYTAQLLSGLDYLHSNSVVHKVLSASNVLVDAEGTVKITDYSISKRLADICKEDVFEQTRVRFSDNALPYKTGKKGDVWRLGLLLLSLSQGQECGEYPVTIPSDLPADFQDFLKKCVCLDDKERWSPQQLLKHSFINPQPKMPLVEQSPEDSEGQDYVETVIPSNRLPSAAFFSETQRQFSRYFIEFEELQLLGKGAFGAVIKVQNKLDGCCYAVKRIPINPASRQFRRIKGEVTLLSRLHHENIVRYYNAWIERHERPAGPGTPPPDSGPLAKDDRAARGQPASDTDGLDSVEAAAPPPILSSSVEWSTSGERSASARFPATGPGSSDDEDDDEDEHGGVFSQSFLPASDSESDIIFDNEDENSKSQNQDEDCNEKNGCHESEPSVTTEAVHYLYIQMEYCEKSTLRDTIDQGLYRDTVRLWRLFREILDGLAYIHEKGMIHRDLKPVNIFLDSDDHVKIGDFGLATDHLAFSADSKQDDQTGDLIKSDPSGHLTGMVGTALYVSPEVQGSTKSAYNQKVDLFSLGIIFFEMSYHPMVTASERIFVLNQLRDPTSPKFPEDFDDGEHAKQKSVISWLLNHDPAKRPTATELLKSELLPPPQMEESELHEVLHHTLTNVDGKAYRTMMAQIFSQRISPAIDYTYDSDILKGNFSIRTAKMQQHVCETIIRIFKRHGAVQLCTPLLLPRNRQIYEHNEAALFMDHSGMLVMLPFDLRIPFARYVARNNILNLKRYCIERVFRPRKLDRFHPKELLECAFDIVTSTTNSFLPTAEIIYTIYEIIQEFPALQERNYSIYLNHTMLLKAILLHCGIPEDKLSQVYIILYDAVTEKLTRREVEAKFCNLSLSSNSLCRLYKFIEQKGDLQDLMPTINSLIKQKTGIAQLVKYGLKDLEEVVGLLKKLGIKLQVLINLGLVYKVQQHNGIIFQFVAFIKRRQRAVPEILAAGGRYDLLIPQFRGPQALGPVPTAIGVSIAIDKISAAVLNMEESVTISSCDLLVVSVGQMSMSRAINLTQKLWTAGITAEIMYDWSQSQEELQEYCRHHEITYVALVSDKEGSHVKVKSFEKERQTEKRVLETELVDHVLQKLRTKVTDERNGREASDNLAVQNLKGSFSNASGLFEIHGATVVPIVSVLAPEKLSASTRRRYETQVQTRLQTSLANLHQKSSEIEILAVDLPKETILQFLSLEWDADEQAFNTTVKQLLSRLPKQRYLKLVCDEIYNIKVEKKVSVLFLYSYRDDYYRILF
Chain of GCN2 kinase (Q9P2K8 whole entry): as above

IC50 (GCN2 kinase; compounds of Formula II) [nM] | EC50 [1] [nM] | IC50 (GCN2 kinase; compounds of Formula IV) [nM] | IC50 ([2]; compounds of Formula IV) [nM] | IC50 ([2]; compounds of Formula II) [nM] | SMILES
 | > 500 |  |  |  | C[C@H]1CC(F)(F)C(CNS(C)(=O)=O)CN1c1cc(-c2cnc3ccc(C(F)F)nn23)ncn1 (stereo in doubt) [II-778, N-(((3R,6S)-1-(6-(6-(difluoromethyl)imidazo[1,2-b]pyridazin-3-yl)pyrimidin-4-yl)-4,4-difluoro-6-methylpiperidin-3-yl)methyl)methanesulfonamide]
 | 100 to 500 | < 10 | < 500 |  | Cc1n[nH]cc1[C@@H]1CN(c2ccnc(-c3cnc4cnc(C(F)(F)F)cn34)n2)C[C@H](C)O1 (stereo in doubt) [IV-763, (2S,6R)-2-methyl-6-(3-methyl-1H-pyrazol-4-yl)-4-(2-(6-(trifluoromethyl)imidazo[1,2-a]pyrazin-3-yl)pyrimidin-4-yl)morpholine]
 | > 500 |  |  |  | CS(=O)(=O)NCC1CCCN(c2cc(-c3cnc4ccc(C(F)F)nn34)cc(OC3CNC3)n2)C1 (stereo not shown) [II-779, N-((1-(6-(azetidin-3-yloxy)-4-(6-(difluoromethyl)imidazo[1,2-b]pyridazin-3-yl)pyridin-2-yl)piperidin-3-yl)methyl)methanesulfonamide]
 | 100 to 500 | < 10 | < 500 |  | C[C@H]1C[C@@H](c2c[nH]nc2F)CN(c2ccnc(-c3cnc4cnc(C(F)(F)F)cn34)n2)C1 [IV-767]
 | > 500 | < 10 | 500 to 5000 |  | Cc1n[nH]cc1[C@H]1C[C@@H](O)CN(c2ccnc(-c3cnc4cnc(C(F)(F)F)cn34)n2)C1 [IV-776, (3R,5R)-5-(3-methyl-1H-pyrazol-4-yl)-1-(2-(6-(trifluoromethyl)imidazo[1,2-a]pyrazin-3-yl)pyrimidin-4-yl)piperidin-3-ol]

More lines, now with the values behind:

SMILES | IC50 (GCN2 kinase; compounds of Formula II) [nM] | EC50 [1] [nM] | IC50 (GCN2 kinase; compounds of Formula IV) [nM] | IC50 ([2]; compounds of Formula IV) [nM] | IC50 ([2]; compounds of Formula II) [nM]
C[C@H]1[C@@H](CNS(C)(=O)=O)CCCN1c1cc(-c2cnc3ccc(C(F)F)nn23)ncn1 (stereo in doubt) [II-755, N-(((2S,3R)-1-(6-(6-(difluoromethyl)imidazo[1,2-b]pyridazin-3-yl)pyrimidin-4-yl)-2-methylpiperidin-3-yl)methyl)methanesulfonamide] | > 1000 | 100 to 500 |  |  | 
C[C@H]1C[C@@H](NS(C)(=O)=O)CN(c2cc(-c3cnc4ccc(C(F)F)nn34)ncn2)C1 (stereo in doubt) [II-777, N-((3R,5S)-1-(6-(6-(difluoromethyl)imidazo[1,2-b]pyridazin-3-yl)pyrimidin-4-yl)-5-methylpiperidin-3-yl)methanesulfonamide] |  | 100 to 500 |  |  | 
C[C@H]1[C@@H](CNS(C)(=O)=O)N(C2CC2)CCN1c1cc(-c2cnc3ccc(C(F)F)nn23)ncn1 [II-752, N-(((2R,3S)-1-cyclopropyl-4-(6-(6-(difluoromethyl)imidazo[12-b]pyridazin-3-yl)pyrimidin-4-yl)-3-methylpiperazin-2-yl)methyl)methanesulfonamide] | < 10 | < 100 |  |  | < 500
Cc1[nH]ncc1[C@H]1CN(c2cc(-c3cnc4ccc(C(F)(F)F)nn34)ncn2)C[C@@H](C)O1 [II-768, (2R,6S)-2-methyl-6-(5-methyl-1H-pyrazol-4-yl)-4-(6-(6-(trifluoromethyl)imidazo[1,2-b]pyridazin-3-yl)pyrimidin-4-yl)morpholine] | < 10 | > 500 |  |  | < 500
CS(=O)(=O)NC[C@@H]1CN(c2cc(-c3cnc4ccc(C(F)F)nn34)ncn2)C[C@H](C(F)(F)F)O1 [II-771, N-(((2S,6R)-4-(6-(6-(difluoromethyl)imidazo[1,2-b]pyridazin-3-yl)pyrimidin-4-yl)-6-(trifluoromethyl)morpholin-2-yl)methyl)methanesulfonamide] | 10 to 1000 | 100 to 500 |  |  | 
C[C@H](NS(C)(=O)=O)[C@@H]1CN(c2cc(-c3cnc4ccc(C(F)F)nn34)ncn2)CCO1 [II-772] | 10 to 1000 | 100 to 500 |  |  | 
C[C@H]1CN(c2cc(-c3cnc4ccc(C(F)F)nn34)ncn2)C[C@@H](CNS(C)(=O)=O)C1(F)F [II-773, N-(((3S,5S)-1-(6-(6-(difluoromethyl)imidazo[1,2-b]pyridazin-3-yl)pyrimidin-4-yl)-4,4-difluoro-5-methylpiperidin-3-yl)methyl)methanesulfonamide] |  | < 100 |  |  | 
CS(=O)(=O)NC[C@H]1C[C@@H](C2CC2)CN(c2cc(-c3cnc4ccc(C(F)F)nn34)ncn2)C1 [II-774, N-(((3S,5S)-5-cyclopropyl-1-(6-(6-(difluoromethyl)imidazo[12-b]pyridazin-3-yl)pyrimidin-4-yl)piperidin-3-yl)methyl)methanesulfonamide] |  | < 100 |  |  | 
CS(=O)(=O)NCC1CN(c2cc(-c3cnc4ccc(C(F)F)nn34)ncn2)CC2(CC2)C1(F)F (stereo not shown) [II-775, N-((5-(6-(6-(difluoromethyl)imidazo[1,2-b]pyridazin-3-yl)pyrimidin-4-yl)-8,8-difluoro-5-azaspiro[2.5]octan-7-yl)methyl)methanesulfonamide] |  | 100 to 500 |  |  | 
CC1(C)CN(c2cc(-c3cnc4ccc(C(F)F)nn34)ncn2)C[C@@H](CNS(C)(=O)=O)O1 [II-776, (S)—N-((4-(6-(6-(difluoromethyl)imidazo[1,2-b]pyridazin-3-yl)pyrimidin-4-yl)-6,6-dimethylmorpholin-2-yl)methyl)methanesulfonamide] |  | 100 to 500 |  |  | 
